Experimental data taken from patent publication EP2474552A1, “New saccharide mimics and their use as inhibitors of angiogenesis and metastasis formation” (Deutsches Krebsforschungszentrum, priority 2011, dated 2012).
Where two headings read alike, the source gives them in different places.

Assays:
WM-115 cells = test: Wound healing assay (cell migration); format: cell-based, human; design: key to inhibit the cell migration of WM-115 cells: (-) means that the cell migration was not inhibited and that the wound healed; (+) means a slight inhibition, which slows the trend to heal; (++) means that the cell migration was inhibited, since only some cells were visible in the wound; (+++) means the absolute inhibition of cell migration; conditions: for concentration at which the migration of human melanoma cells is inhibited: summary of Table 1
Experimental: The compounds of the present invention were analyzed by means of a migration-assay, called "wound healing assay", that determines the inhibition-rate of the compounds on human melanoma cell line migration. Another migration assay, the so-called the Oris™ cell migration assay, is also applicable to examine the cell migration inhibitory effects of the compounds of the present invention. The used melanoma cells lines were WM-115 and WM-266-4, which are accepted in-vitro model cell systems. The human cell line WM-115 is derived from the primary tumor of a vertical growth phase (VGP) melanoma, whereas the cell line WM-266-4 is derived from the corresponding cutaneous metastasis. The "wound healing assay" is applicable to examine the cell migration inhibitory effects of the compounds of the present invention, which is described in further detail in the Examples. Furthermore, the "wound healing assay" is based on the fact that when wounded or scratched, cell monolayers respond to the disruption of cell-cell contacts and an increased concentration of growth factors at the wound margin by healing the wound through a combination of proliferation and migration, according to Yarrow, J.C., et al., BMC Biotechnol., 2004: 4, 21-29. In order to investigate the cell migration an intact cell monolayer is wounded with a pipette tip.
The wound healing assay has been carried out according to description as disclosed in Yarrow, J.C., et al., BMC Biotechnol., 2004: 4, 21-29. For carrying out the wound healing assay, 2 x 10^5 cells were grown in one well of a 12-well-plate under cell culture specific conditions for 24 h. After 24 h, a wound has been scratched in the confluently grown cell monolayer with a 100 µl pipette-tip. Detached cells were removed by washing with serum-free medium and new media with the respective compounds to be tested were supplemented with varying amounts. The cells were incubated under cell culture specific conditions and always the same section was photographed after 2, 4, 8 and 24 under the phase contrast microscope. The untreated cells healed the wound through a combination of proliferation and migration after 24 h.
The following table (Table 1) is a summary of the results obtained by carrying out the above described wound healing assay with varying amounts of compounds of the present invention to inhibit the cell migration of WM-115 cells, wherein (-) means that the cell migration was not inhibited and that the wound healed, (+) means a slight inhibition, which slows the trend to heal, (++) means that the cell migration was inhibited, since only some cells were visible in the wound, and (+++) means the absolute inhibition of cell migration. The abbreviation "n.d." means "not determined".

WM-266-4 cells [1] = test: Adhesion assay with WM-266-4 cells on fibronectin; format: cell-based, human
Experimental: Microtiter plates with 96 wells were coated with 0.5 µg of fibronectin in 50 µl over night at 4° C and blocked with 200 µl adhesion buffer (1% BSA in PBS without Ca^2+/Mg^2+). WM-266-4 cells were pre-incubated with the test compounds at the respective concentrations in serum free medium for 60 min in a shaker (600 rpm) at 37° C. Afterwards, 4 x 10^4 cells in 100 µl were withdrawn and added into each well and incubated for 1 h at 37° C. Medium and non-adherent cells were aspirated and adherent cells were fixed in 4% formalin in PBS. The plates were washed with 0.01 M borate buffer (Stock-solution: 20 mM boric acid, 100 mM sodium tetraborate; pH 8.5; working solution: 0.01 M dilution in H2O) and 50 µl of 0.01 % methylene blue in borate buffer were added, wherein the cells were stained for 10 min at room temperature. The plates were extensively washed with water and air-dried. The air-dried plates were incubated for 45 min with 200 µl/well extraction buffer (a mixture of 0.1 N HCl and absolute EtOH (1:1, vol/vol)), wherein the adherent cells were quantified in an ELISA-reader, which read the extinction at 651 nm.
The human melanoma cells adhered to the fibronectin coated cell culture dishes. This adhesion is a prerequisite for growth of circulating cells such as occurs when these metastasize to sites distant from the tumor. The compounds described herein can inhibit such adhesion to the extracellular matrix protein fibronection or laminin to various degrees.

human melanoma cells [2] = test: Vitality test with Trypanblue; conditions: cells of the migration assay
WM-115 [3] = conditions: WM-115, 5 mM; cited from earlier work
murine B16F10 cells = conditions: cited from earlier work
WM-115 [4] = conditions: WM-115, at 5 mM; cited from earlier work
WM-266-4 = conditions: WM-266-4, 2.5 mM; cited from earlier work
human WM-115 cells = conditions: cited from earlier work
[5] = tested on: matrix-metalloproteinase-2 (MMP-2); conditions: cited from earlier work
WM-266-4 cells [6] = conditions: WM-266-4, at 5 mM; cited from earlier work
HBMEC-60 cells = test: Adhesion assay with HBMEC cells (TNF-α stimulated) on laminin; format: cell-based, human
Experimental: Microtiter plates with 96 wells coated with the extracellular matrix component type I collagen, fibronenctin or laminin were used. HBMEC-60 cells which had been pre-incubated with the tumor necrosis factor (TNF-α, 40 ng/ml) for 24 hrs were incubated with the test compounds at the respective concentrations in serum free medium for endothelial cells (Promozell, Heidelberg, Germany) without growth factors for 30 min in 1.5 mL microfuge tubes (Eppendorf, Hamburg, Germany). Afterwards, 4 x 10^4 HBMEC-60 cells in 100 µl were withdrawn and added into each well. The plates were incubated at 37° C for 30 min and subsequently washed twice with PBS (with CaCl2 und MgSO4). Then, the adherent cells were fixed, washed and stained with methylene blue, the dye released and the extinction read as described above for the experiments with the melanoma cells.
Adhesion of endothelial cells to extracellular matrix proteins like laminin is a prerequisite for angiogenesis.

human melanoma cells [7] = tested on: human melanoma cells

vitality test with Trypanblue (human melanoma cells [7])	Compound	inhibit the cell migration of WM-115 cells (WM-115 cells; Concentration 1 mM)	inhibit the cell migration of WM-115 cells (WM-115 cells; Concentration 2.5 mM)	inhibit the cell migration of WM-115 cells (WM-115 cells; Concentration 5mM)	inhibit the cell migration of WM-115 cells (WM-115 cells; Concentration 0.1 mM)	concentration at which the migration of human melanoma cells is inhibited (WM-115 cells)	inhibition of the adhesion of WM-266-4 cells to fibronectin (WM-266-4 cells [1]; concentration of 5 mM) [%]	further results
	OC[C@H]1O[C@@H](OCc2cocc2CF)[C@H](O)[C@@H](O)[C@H]1O [GFF, 3-(β-D-galactopyranosyl-oxymethyl)-4-(fluoro-methyl)-furan]	+	+++	+++				inhibition at 100 µM (WM-266-4 cells [1]; Homo sapiens, WM 266-4, concentration of 0.1 mM): 34%; inhibition at 5000 µM (WM-266-4 cells [1]; Homo sapiens, WM 266-4, concentration of 5 mM): 62%; vitality test with Trypanblue (human melanoma cells [2]): cells were intact
	O=S(=O)(O)OCc1cocc1CO[C@@H]1O[C@H](CO)[C@H](O)[C@H](O)[C@H]1O [GSF, 3-β-D-galactopyranosyl-oxymethyl-4-sulfato-methyl-furan]	-	+	+++	-	greater than or equal to 2.5 mM	26	inhibition of cell migration into a wound (WM-115 [3]): no detectable migration; inhibition of adhesion to fibrinogen (murine B16F10 cells; at 20 mM or rather 10 mM): completely inhibits; inhibition of adhesion to fibronectin (murine B16F10 cells; at 40 mM): completely inhibits; inhibition of migration (WM-115 [4]): inhibited; inhibition of the adhesion of WM-266-4 cells to fibronectin (WM-266-4 cells [1]; concentration of 0.1 mM): 8%; inhibition of cell migration into a wound (WM-266-4): no detectable migration; inhibition of adhesion to fibrinogen (human WM-115 cells; at 20 mM or rather 10 mM): completely inhibits; inhibition of adhesion to fibronectin (human WM-115 cells; at 40 mM): completely inhibits; activation of the matrix-metalloproteinase-2 (MMP-2) [5]: decreased; inhibition of migration (WM-266-4 cells [6]): inhibited
cells were intact	O=S(=O)(O)OCc1cocc1CO[C@@H]1O[C@H](COS(=O)(=O)O)[C@H](O)[C@H](O)[C@H]1O [GSSF, 3-(6-sulfato-β-D-galactopyranosyl-oxymethyl)-4-(sulfatomethyl)-furan]	++	+++	+++	++	0.1 mM		inhibition of HBMEC-60 cell adhesion to laminin (HBMEC-60 cells; 10 mM, compared with 10 mM GSF): better inhibitor; inhibition of endothelial cell adhesion to laminin (HBMEC-60 cells; concentrations of 0.1, 0.5, 1 and 5 mM): significantly inhibited
cells were intact	O=S(=O)(O)OCc1cocc1CO[C@@H]1O[C@H](CO)[C@@H](O)[C@H](O)[C@H]1O [GluSF, 3-(β-D-glucopyranosyl-oxymethyl)-4-(sulfatomethyl)-furan]	+	+	+++	-	1 mM	79	
